Data as given in patent US20020055528A1, “Artemisinin analogs having antimalarial, antiproliferative, and antitumor activities and chemoselective methods of making the same” (priority 1999, published 2002).

What was measured:
Type in all cases: cell-based
RPMI-8226 = experiment: NCI 60 cell line screen (SRB), Leukemia
SR = experiment: NCI 60 cell line screen (SRB), Leukemia
EKVX = experiment: NCI 60 cell line screen (SRB), Non-Small Cell Lung Cancer
HOP-62 = experiment: as above
NCI-H226 = experiment: as above
NCI-H322M = experiment: as above
NCI-H460 = experiment: as above
NCI-H522 = experiment: as above
COLO 205 = experiment: NCI 60 cell line screen (SRB), Colon Cancer
HT29 = experiment: NCI 60 cell line screen (SRB), Colon Cancer
KM12 = experiment: NCI 60 cell line screen (SRB), Colon Cancer
SW-620 = experiment: NCI 60 cell line screen (SRB), Colon Cancer
HCC-2998 = experiment: NCI 60 cell line screen (SRB), Colon Cancer
SF-295 = experiment: NCI 60 cell line screen (SRB), CNS Cancer
SNB-19 = experiment: NCI 60 cell line screen (SRB), CNS Cancer
SNB-75 = experiment: NCI 60 cell line screen (SRB), CNS Cancer
U251 = experiment: NCI 60 cell line screen (SRB), CNS Cancer
LOX IMVI = experiment: NCI 60 cell line screen (SRB), Melanoma
MALME-3M = experiment: NCI 60 cell line screen (SRB), Melanoma
SK-MEL2 = experiment: NCI 60 cell line screen (SRB), Melanoma
UACC-62 = experiment: NCI 60 cell line screen (SRB), Melanoma
SK-MEL-5 = experiment: NCI 60 cell line screen (SRB), Melanoma
IGROVI = experiment: NCI 60 cell line screen (SRB), Ovarian Cancer
OVCAR-3 = experiment: NCI 60 cell line screen (SRB), Ovarian Cancer; details: PG=0
OVCAR-5 = experiment: NCI 60 cell line screen (SRB), Ovarian Cancer
OVCAR-8 = experiment: NCI 60 cell line screen (SRB), Ovarian Cancer
786-0 = experiment: NCI 60 cell line screen (SRB), Renal Cancer
ACHN = experiment: NCI 60 cell line screen (SRB), Renal Cancer
CAKI-1 = experiment: NCI 60 cell line screen (SRB), Renal Cancer
RXF 393 = experiment: NCI 60 cell line screen (SRB), Renal Cancer
TK-10 = experiment: NCI 60 cell line screen (SRB), Renal Cancer
MCF7 = experiment: NCI 60 cell line screen (SRB), Breast Cancer
MDA-MB231/ATCC = experiment: NCI 60 cell line screen (SRB), Breast Cancer; details: MDA- (first line of MDA-MB231/ATCC)
[1] = tested on: MB231/ATCC (second line of the wrapped label, with values of its own); experiment: NCI 60 cell line screen (SRB), Breast Cancer
MDA-MB-435 = experiment: NCI 60 cell line screen (SRB), Breast Cancer
BT-549 = experiment: NCI 60 cell line screen (SRB), Breast Cancer

CC1=C(C=Cc2cccc(C=CC3=C(C)C4CCC(C)C5CCC6(C)OOC45C(O3)O6)c2)OC2OC3(C)CCC4C(C)CCC1C24OO3 (stereo not shown) [VII-g]
Log10TGI (RPMI-8226; PG=0): −7.25 log10M | Log10GI50 (RPMI-8226; PG=+50): −7.25 log10M | Log10GI50 (RPMI-8226; Table IV (LC50, PG=−50)): >−4.00 log10M | Log10TGI (SR; PG=0): −7.42 log10M | Log10GI50 (SR; PG=+50): −7.42 log10M | Log10GI50 (SR; Table IV (LC50, PG=−50)): >−4.00 log10M | Log10TGI (EKVX; PG=0): >−4.00 log10M | Log10GI50 (EKVX; PG=+50): −7.17 log10M | Log10GI50 (EKVX; Table IV (LC50, PG=−50)): >−4.00 log10M | Log10TGI (HOP-62; PG=0): >−4.00 log10M | Log10GI50 (HOP-62; PG=+50): −6.45 log10M | Log10GI50 (HOP-62; Table IV (LC50, PG=−50)): >−4.00 log10M | Log10TGI (NCI-H226; PG=0): >−4.00 log10M | Log10GI50 (NCI-H226; PG=+50): −4.91 log10M | Log10GI50 (NCI-H226; Table IV (LC50, PG=−50)): >−4.00 log10M | Log10TGI (NCI-H322M; PG=0): −4.87 log10M | Log10GI50 (NCI-H322M; PG=+50): −7.42 log10M | Log10TGI (NCI-H460; PG=0): >−4.00 log10M | Log10 GI50 or Log10 LC50 (NCI-H460; PG=+50): −5.13 log10M | Log10TGI (NCI-H522; PG=0): >−4.00 log10M | Log10GI50 (NCI-H522; PG=+50): −6.99 log10M | Log10GI50 (NCI-H522; Table IV (LC50, PG=−50)): >−4.00 log10M | Log10TGI (COLO 205; PG=0): −6.82 log10M | Log10GI50 (COLO 205; PG=+50): −7.50 log10M | Log10GI50 (COLO 205; Table IV (LC50, PG=−50)): −4.96 log10M | Log10TGI (HT29; PG=0): >−4.00 log10M | Log10GI50 (HT29; PG=+50): −6.88 log10M | Log10GI50 (HT29; Table IV (LC50, PG=−50)): >−4.00 log10M | Log10TGI (KM12; PG=0): >−4.00 log10M | Log10GI50 (KM12; PG=+50): −7.27 log10M | Log10GI50 (KM12; Table IV (LC50, PG=−50)): >−4.00 log10M | Log10TGI (SW-620; PG=0): >−4.00 log10M | Log10GI50 (SW-620; PG=+50): −7.22 log10M | Log10TGI (HCC-2998; PG=0): >−4.00 log10M | Log10GI50 (HCC-2998; PG=+50): −6.12 log10M | Log10TGI (SF-295; PG=0): >−4.00 log10M | Log10GI50 (SF-295; PG=+50): −6.48 log10M | Log10TGI (SNB-19; PG=0): >−4.00 log10M | Log10GI50 or Log10LC50 (see condition) (SNB-19; PG=+50): −6.48 log10M | Log10GI50 or Log10LC50 (see condition) (SNB-19; Table IV (LC50, PG=−50)): >−4.00 log10M | Log10 GI50 (PG=+50) or LC50 (PG=−50) (SNB-75; PG=+50): −6.45 log10M | Log10 GI50 (PG=+50) or LC50 (PG=−50) (SNB-75; Table IV (LC50, PG=−50)): >−4.00 log10M | Log10TGI (U251; PG=0): >−4.00 log10M | Log10GI50 (U251; PG=+50): −6.86 log10M | Log10GI50 (U251; Table IV (LC50, PG=−50)): >−4.00 log10M | Log10TGI (LOX IMVI; PG=0): −5.06 log10M | Log10GI50 (LOX IMVI; PG=+50): −7.07 log10M | Log10GI50 (LOX IMVI; Table IV (LC50, PG=−50)): >−4.00 log10M | Log10TGI (MALME-3M; PG=0): −4.24 log10M | Log10GI50 (MALME-3M; PG=+50): −6.60 log10M | Log10GI50 (MALME-3M; Table IV (LC50, PG=−50)): >−4.00 log10M | Log10TGI (SK-MEL2; PG=0): >−4.00 log10M | Log10 GI50 or LC50 (per conditions) (SK-MEL2; PG=+50): −6.39 log10M | Log10 GI50 or LC50 (per conditions) (SK-MEL2; Table IV (LC50, PG=−50)): >−4.00 log10M | Log10TGI (UACC-62; PG=0): >−4.00 log10M | Log10GI50 (UACC-62; PG=+50): −5.46 log10M | Log10GI50 (UACC-62; Table IV (LC50, PG=−50)): >−4.00 log10M | Log10TGI (SK-MEL-5; PG=0): −5.16 log10M | Log10 GI50 or LC50 (SK-MEL-5; PG=+50): −6.71 log10M | Log10 GI50 or LC50 (SK-MEL-5; Table IV (LC50, PG=−50)): >−4.00 log10M | Log10TGI (IGROVI; PG=0): −4.21 log10M | Log10GI50 (IGROVI; PG=+50): −5.16 log10M | Log10GI50 (IGROVI; Table IV (LC50, PG=−50)): >−4.00 log10M | Log10TGI (OVCAR-3): >−4.00 log10M | Log10TGI (OVCAR-5; PG=0): >−4.00 log10M | Log10GI50 (OVCAR-5; PG=+50): −6.58 log10M | Log10GI50 (OVCAR-5; Table IV (LC50, PG=−50)): >−4.00 log10M | Log10TGI (OVCAR-8; PG=0): >−4.00 log10M | Log10GI50 (OVCAR-8; PG=+50): −6.70 log10M | Log10GI50 (OVCAR-8; Table IV (LC50, PG=−50)): >−4.00 log10M | Log10TGI (786-0; PG=0): >−4.00 log10M | Log10GI50 (786-0; PG=+50): −6.10 log10M | Log10GI50 (786-0; Table IV (LC50, PG=−50)): >−4.00 log10M | Log10TGI (ACHN; PG=0): >−4.00 log10M | Log10 GI50 or LC50 (see conditions) (ACHN; PG=+50): −6.37 log10M | Log10 GI50 or LC50 (see conditions) (ACHN; Table IV (LC50, PG=−50)): >−4.00 log10M | Log10GI50 (CAKI-1; PG=+50): −6.22 log10M | Log10GI50 (CAKI-1; Table IV (LC50, PG=−50)): >−4.00 log10M | Log10TGI (RXF 393; PG=0): >−4.00 log10M | Log10GI50 (RXF 393; PG=+50): −5.80 log10M | Log10GI50 (RXF 393; Table IV (LC50, PG=−50)): >−4.00 log10M | Log10TGI (TK-10; PG=0): >−4.00 log10M | Log10GI50 (TK-10; PG=+50): −6.48 log10M | Log10GI50 (TK-10; Table IV (LC50, PG=−50)): >−4.00 log10M | Log10TGI (MCF7; PG=0): >−4.00 log10M | Log10GI50 (MCF7; PG=+50): −6.63 log10M | Log10GI50 (MCF7; Table IV (LC50, PG=−50)): >−4.00 log10M | Log10TGI (MDA-MB231/ATCC; PG=0): −4.74 log10M | Log10 GI50 or LC50 (per conditions) (MDA-MB231/ATCC; PG=+50): −6.07 log10M | Log10 GI50 or LC50 (per conditions) (MDA-MB231/ATCC; Table IV (LC50, PG=−50)): >−4.00 log10M | Log10GI50 ([1]; PG=+50): −7.10 log10M | Log10GI50 ([1]; Table IV (LC50, PG=−50)): >−4.00 log10M | Log10TGI (MDA-MB-435; MDA-MB-435, PG=0): >−4.00 log10M | Log10GI50 (MDA-MB-435; MDA-MB−435, PG=+50): −6.57 log10M | Log10GI50 (MDA-MB-435; Table IV (LC50, PG=−50), MDA-MB-435): >−4.00 log10M | Log10GI50 (BT-549; PG=+50): −7.51 log10M | Log10GI50 (BT-549; Table IV (LC50, PG=−50)): >−4.00 log10M
